A short description of the data set: activity coefficient (dimensionless); of the first substance listed, at infinite dilution; xn = mol fraction of the nth substance listed. The settings on record: Liquid, Chromatography, x1 = 0.

± gives the expanded uncertainty stated by the source.

On to `CCCCCCCC` [octane] + CCCCn1cc[n+](C)c1.N#C[S-], for which the activity coefficient runs as follows: (298.15 K) 350 ± 24; (308.15 K) 311 ± 21; (318.15 K) 279 ± 19; (328.15 K) 243 ± 17; (338.15 K) 218 ± 15; (348.15 K) 198 ± 14. Further, the activity coefficient (358.15 K) is 180 ± 12.
As to `CCCCCO` [pentan-1-ol] + CCCCn1cc[n+](C)c1.N#C[S-], the activity coefficient is, setting by setting: (318.15 K) 1.62 ± 0.11; (328.15 K) 1.54 ± 0.1; (338.15 K) 1.5 ± 0.1; (348.15 K) 1.47 ± 0.1; (358.15 K) 1.45 ± 0.1; (368.15 K) 1.44 ± 0.09.
For the compound `CCCO` [propan-1-ol] + CCCCn1cc[n+](C)c1.N#C[S-], the activity coefficient came out at 0.93 ± 0.06 (308.15 K); 0.9 ± 0.06 (318.15 K); 0.87 ± 0.06 (328.15 K); 0.84 ± 0.05 (338.15 K); 0.83 ± 0.05 (348.15 K); 0.81 ± 0.05 (358.15 K). Besides, the activity coefficient (368.15 K) came to 0.8 ± 0.05.
On to `C1CCOC1` [tetrahydrofuran] + CCCCn1cc[n+](C)c1.N#C[S-], for which the activity coefficient by setting is: (298.15 K, 101 kPa) 2 ± 0.14; (308.15 K, 101 kPa) 1.98 ± 0.13; (318.15 K, 101 kPa) 1.99 ± 0.14; (328.15 K, 101 kPa) 1.99 ± 0.14; (338.15 K, 101 kPa) 1.99 ± 0.14; (348.15 K, 101 kPa) 1.99 ± 0.14. Also, the activity coefficient runs as follows: (358.15 K, 101 kPa) 1.99 ± 0.14; (368.15 K, 101 kPa) 2.01 ± 0.14.
On to `c1ccsc1` [thiophene] + CCCCn1cc[n+](C)c1.N#C[S-], for which the activity coefficient runs as follows: (298.15 K) 1.21 ± 0.078; (308.15 K) 1.24 ± 0.08; (318.15 K) 1.26 ± 0.081; (328.15 K) 1.27 ± 0.082; (338.15 K) 1.29 ± 0.084; (348.15 K) 1.32 ± 0.085. Besides, the activity coefficient stood at 1.33 ± 0.086 (358.15 K) and 1.36 ± 0.089 (368.15 K).
Regarding `Cc1ccccc1` [toluene] + CCCCn1cc[n+](C)c1.N#C[S-], the activity coefficient amounted to 3.4 ± 0.23 (298.15 K); 3.48 ± 0.24 (308.15 K); 3.52 ± 0.24 (318.15 K); 3.53 ± 0.24 (328.15 K); 3.55 ± 0.24 (338.15 K); 3.59 ± 0.24 (348.15 K). Besides, the activity coefficient by setting is: (358.15 K) 3.62 ± 0.25; (368.15 K) 3.65 ± 0.25.
On to `O` [water] + CCCCn1cc[n+](C)c1.N#C[S-], for which the activity coefficient stood at 0.316 ± 0.035 (328.15 K); 0.316 ± 0.035 (338.15 K); 0.32 ± 0.035 (348.15 K); 0.323 ± 0.035 (358.15 K); 0.325 ± 0.035 (368.15 K).

These data come from the NIST ThermoML archive (doi:10.1016/j.jct.2008.12.018).
